From PMC6410080 (Viruses, 2019)
Where a name gives a salt, the structure may show the parent alone.

system: RRV; assay: microbe, parasite or virus in culture; assay type: cell-based; details: Ross River virus, HeLa Kyoto, read-out: IC50 RRV

| SMILES | IC50 [µM] |
| --- | --- |
| CCN(CC)Cc1cc(Nc2ccnc3cc(Cl)ccc23)ccc1O [Amodiaquine, Amodiaquine dihydrochloride dihydrate] | 6.2 |
| CC(C)COCC(CN(Cc1ccccc1)c1ccccc1)N1CCCC1 (stereo not shown) [Bepridil, Bepridil hydrochloride] | 4.6 |
| CNc1ccc2oc(C[C@H]3O[C@@]4(CC[C@H]3C)O[C@H]([C@H](C)C(=O)c3ccc[nH]3)[C@H](C)C[C@H]4C)nc2c1C(=O)O [Calcimycin] | 6.5 |
| O=C1c2c(O)ccc(O)c2C(=O)c2c(NCCNCCO)ccc(NCCNCCO)c21 [Mitoxantrone, Mitoxantrone dihydrochloride] | 4.9 |
| CC[C@@]1([C@@H]2O[C@@H]([C@H]3O[C@@](O)(CO)[C@H](C)C[C@@H]3C)C[C@@H]2C)CC[C@H]([C@]2(C)CC[C@]3(C[C@H](O)[C@@H](C)[C@@H]([C@@H](C)[C@@H](OC)[C@H](C)C(=O)O)O3)O2)O1 [Monensin, Monensin sodium salt] | 4.6 |
| O=C(Nc1ccc([N+](=O)[O-])cc1Cl)c1cc(Cl)ccc1O [Niclosamide] | 0.82 |
| C=C1C(=O)O[C@H]2[C@H]1CC/C(C)=C/CC[C@@]1(C)O[C@@H]21 [Parthenolide] | 7.7 |
